For one test, the system named is KB. The test is described as follows: Cytotoxicity against human KB cells assessed as reduction in cell number after 3 days. Type of test: functional. As to conditions: 72 h, read-out: ID50 (the source's name).
The target in test [1] is DNA topoisomerase 2-alpha (Homo sapiens) (UniProt P11388). The test is described as follows: Inhibition of human DNA topoisomerase 2.
Test [2] shares this target. The test is described as follows: Inhibition of strand rejoining activity of human DNA topoisomerase 2 assessed as protein-DNA complex formation at 10 uM by cell-based assay. More on the design: scale not given: the % may be the effect or the level left.
In another test the test system is EMT6. The test is described as follows: Ratio of cytotoxicity for normally oxygenated mouse EMT6 cells over hypoxic mouse EMT6 cells. In kind it is functional.

Sequence of DNA topoisomerase 2-alpha (Homo sapiens) (P11388 whole entry): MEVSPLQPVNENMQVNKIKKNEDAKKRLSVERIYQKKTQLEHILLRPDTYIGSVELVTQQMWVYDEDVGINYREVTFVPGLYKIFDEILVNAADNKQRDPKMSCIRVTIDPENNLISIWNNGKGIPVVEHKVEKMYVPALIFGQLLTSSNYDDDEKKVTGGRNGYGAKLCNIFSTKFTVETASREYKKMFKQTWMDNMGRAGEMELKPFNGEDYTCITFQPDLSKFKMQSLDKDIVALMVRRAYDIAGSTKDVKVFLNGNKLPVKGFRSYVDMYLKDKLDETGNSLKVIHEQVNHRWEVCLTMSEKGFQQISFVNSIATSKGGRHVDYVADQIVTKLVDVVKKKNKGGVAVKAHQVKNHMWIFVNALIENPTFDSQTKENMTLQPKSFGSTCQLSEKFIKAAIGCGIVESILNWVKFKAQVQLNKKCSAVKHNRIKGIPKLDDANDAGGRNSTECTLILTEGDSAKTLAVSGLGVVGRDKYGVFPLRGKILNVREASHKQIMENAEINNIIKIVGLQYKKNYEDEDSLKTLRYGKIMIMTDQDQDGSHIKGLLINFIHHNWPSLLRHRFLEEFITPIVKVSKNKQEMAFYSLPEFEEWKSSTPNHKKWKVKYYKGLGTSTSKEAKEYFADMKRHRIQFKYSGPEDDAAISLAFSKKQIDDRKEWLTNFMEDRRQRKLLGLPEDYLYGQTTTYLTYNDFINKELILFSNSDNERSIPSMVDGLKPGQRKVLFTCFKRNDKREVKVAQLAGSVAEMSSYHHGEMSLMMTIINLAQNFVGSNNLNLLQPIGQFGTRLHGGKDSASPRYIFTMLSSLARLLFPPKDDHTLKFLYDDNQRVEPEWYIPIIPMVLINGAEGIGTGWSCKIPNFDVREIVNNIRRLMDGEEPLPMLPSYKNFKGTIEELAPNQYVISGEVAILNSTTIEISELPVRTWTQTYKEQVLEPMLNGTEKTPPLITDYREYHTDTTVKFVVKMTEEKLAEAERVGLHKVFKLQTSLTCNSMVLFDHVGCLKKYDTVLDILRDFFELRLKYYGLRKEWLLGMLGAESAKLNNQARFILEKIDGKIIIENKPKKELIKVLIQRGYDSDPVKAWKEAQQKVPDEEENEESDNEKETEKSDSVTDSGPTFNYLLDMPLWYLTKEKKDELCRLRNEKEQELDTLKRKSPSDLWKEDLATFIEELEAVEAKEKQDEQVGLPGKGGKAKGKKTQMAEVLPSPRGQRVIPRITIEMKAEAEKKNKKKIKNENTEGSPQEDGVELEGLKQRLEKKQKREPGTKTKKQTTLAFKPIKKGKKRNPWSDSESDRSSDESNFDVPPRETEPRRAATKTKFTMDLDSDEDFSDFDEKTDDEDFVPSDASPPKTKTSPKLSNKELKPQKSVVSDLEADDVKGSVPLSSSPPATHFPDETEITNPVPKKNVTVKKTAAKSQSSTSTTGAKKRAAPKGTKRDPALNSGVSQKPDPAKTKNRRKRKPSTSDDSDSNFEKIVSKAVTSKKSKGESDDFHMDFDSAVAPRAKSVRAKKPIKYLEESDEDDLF

As to `COc1cc([C@@H]2c3cc4c(cc3[C@@H](Nc3cncc5ccccc35)[C@H]3COC(=O)[C@H]23)OCO4)cc(OC)c1O`, the IC50 in the test with KB was under 1 µM. The ID50 in test [1] amounted to 50 µM. Besides, the Activity in test [2] came to 123%.
On to `COC(=O)c1cccc(N[C@@H]2c3cc4c(cc3[C@@H](c3cc(OC)c(O)c(OC)c3)[C@H]3C(=O)OC[C@@H]32)OCO4)c1`, for which the IC50 in the test with KB amounted to 2.7 µM. In test [1], this molecule registered an ID50 of 50 µM. Besides, the Activity in test [2] stood at 129%.
Take `COc1cc([C@@H]2c3cc4c(cc3[C@@H](Oc3ccc(F)cc3)[C@H]3COC(=O)[C@H]23)OCO4)cc(OC)c1O`: the IC50 with KB was 0.5 µM. In test [1], this molecule gave an ID50 of over 100 µM. Also, the Activity in test [2] was 57%.
As for `COc1cc([C@@H]2c3cc4c(cc3[C@@H](O[C@@H]3O[C@@H]5CO[C@@H](C)O[C@H]5[C@H](O)[C@H]3O)[C@H]3COC(=O)[C@H]23)OCO4)cc(OC)c1O` [ETOPOSIDE], in the test on EMT6, the Ratio turned out to be 30. Moreover, the Activity in test [2] was determined as 100%.
In the case of `COC(=O)c1ccc(N[C@@H]2c3cc4c(cc3[C@@H](c3cc(OC)c(O)c(OC)c3)[C@H]3C(=O)OC[C@@H]32)OCO4)cc1O`, the IC50 in the test on KB was 5.8 µM. Further, the ID50 in test [1] is 50 µM. Further, the Activity in test [2] stood at 129%.
Turning to `COc1cc([C@@H]2c3cc4c(cc3[C@@H](Nc3ccc(C#N)cc3)[C@H]3COC(=O)[C@H]23)OCO4)cc(OC)c1O`, in the test on KB, the IC50 was 0.6 µM. Besides, the Activity in test [2] is 211%.
Consider `COc1cc([C@@H]2c3cc4c(cc3[C@@H](Nc3cc(C(F)(F)F)cc(C(F)(F)F)c3)[C@H]3COC(=O)[C@H]23)OCO4)cc(OC)c1O`, for which the IC50 in the test with KB was 3.4 µM. This molecule also showed an ID50 in test [1] of over 100 µM. Also, the Activity in test [2] turned out to be 21%.
Turning to `COc1cc([C@@H]2c3cc4c(cc3[C@@H](Nc3ccc(F)cc3)[C@H]3COC(=O)[C@H]23)OCO4)cc(OC)c1O`, the IC50 in the test with KB was 0.2 µM. Further, the ID50 in test [1] is 5 µM. Further, in test [2], the Activity amounted to 2.13%.
For `COc1cc([C@@H]2c3cc4c(cc3[C@@H](Nc3cccc([N+](=O)[O-])c3)[C@H]3COC(=O)[C@H]23)OCO4)cc(OC)c1O`, in that order: 1 µM, 50 µM and 230%.
Consider `CCOC(=O)c1ccc(N[C@@H]2c3cc4c(cc3[C@@H](c3cc(OC)c(O)c(OC)c3)[C@H]3C(=O)OC[C@@H]32)OCO4)cc1`, for which the IC50 with KB came out at 0.84 µM. Besides, the ID50 in test [1] stood at 5 µM. In addition, in test [2], the Activity amounted to 207%.
With `COc1cc([C@@H]2c3cc4c(cc3[C@@H](Nc3ccc([N+](=O)[O-])cc3)[C@H]3COC(=O)[C@H]23)OCO4)cc(OC)c1O`, the IC50 in the test with KB worked out at 0.5 µM. Moreover, the ID50 in test [1] worked out at 10 µM. The Activity in test [2] was found to be 323%.
For `COc1cc([C@@H]2c3cc4c(cc3[C@@H](Nc3ccccc3)[C@H]3COC(=O)[C@H]23)OCO4)cc(OC)c1O`, in that order: 0.7 µM, 25 µM and 243%.

The values are drawn from ChEMBL document CHEMBL1149733, “Antitumor agents, 130, Novel 4 beta-arylamino derivatives of 3',4'-didemethoxy-3',4'-dioxo-4-deoxypodophyllotoxin as potent inhibitors of human DNA topoisomerase II” (1992).
